# Measured values reported in patent US6884597B1, “Method for detecting acetyltransferase and deacetylase activities and method for screening inhibitors or enhancers of these enzymes” (Medical & Biological Laboratories, Co., Ltd., priority 1998, dated 2005).
# T1: Sub p53-1
# T1 chain: STSRHKKLMFKTE
# T2: Sub p53-2
# T2 chain: SHLKSKKGQSTSR
# B1: recombinant CBP (protein)
# chain: QNRYHFCEKCFTEIQGENVTLGDDPSQPQTTISKDQFEKKKNDTLDPEPFVDCKECGRKMHQICVLHYDIIWPSGFVCDNCLKKTGRPRKENKFSAKRLQTTRLGNHLEDRVNKFLRRQNHPEAGEVFVRVVASSDKTVEVKPGMKSRFVDSGEMSESFPYRTKALFAFEEIDGVDVCFFGMHVQEYGSDCPPPNTRRVYISYLDSIHFFRPRCLRTAVYHEILIGYLEYVKKLGYVTGHIWACPPSEGDDYIFHCHPPDQKIPKPKRLQEWYKKMLDKAFAERIIHDYKDIFKQATEDRLTSAKELPYFEGDFWPNVLEESIKELEQEEEERKKEESTAASETTEGSQGDSKNAKKKNNKKTNKNKSSISRANKKKPSMPNVSNDLSQKLYATMEKHKEVFFVIHLHAGPVINTLPPIVDPDPLLSCDLMDGRDAFLTLARDKHWEFSSLRRSKWSTLCMLVELHTQGQDRFVYTCNEC
# Legend:
# histone deacetylase = experiment: Detection of change in acetylation of histone in cells with anti-acetylated lysine antibody (cell ELISA); assay type: cell-based, human; conditions: Hela cells, 8 hours
# Description: Hela cells were spread onto a 96-well plate for cell culture by adjusting 2500 cells per well (culture medium was DMEM, 200 μl thereof was used per well), and cultured at 37° C. overnight in a 5% CO2 incubator to tightly attach the cells onto the plate. • 3. Treatment with known Inhibitors for Histone Deacetylase […]
# The medium was aspirated from each well without touching the cells, and each well was washed with 200 μl of PBS three times. After washing, 200 μl of 100% methanol cooled at −20° C. in advance was added to each well, left at room temperature for 5 min to fix the cells. […] was completely aspirated and dried.
# The anti-acetylated lysine residue antibody was diluted to 0.5 μg/ml with the antibody dilution buffer and 100 μl thereof was added to each washed well, and left at 30° C. for 1 hour (the first reaction). After the first reaction, each well was washed with the washing buffer in the same manner, and 100 μl of goat anti-rabbit Ig (H+L) horse radish peroxidase label (MBL) diluted 2000 folds with the antibody dilution buffer was added to each well, and left at 30° C. for 1 hour (the second reaction). Each well was washed with washing buffer, and 100 μl of horse radish peroxidase substrate solution was added to each well and incubated at 30° C. for 30 min for the coloring reaction. 100 μl of the 1.5 N phosphate solution was added thereto to terminate the coloring reaction. Absorbance at 450 nm was measured using a microtiter plate reader.
# As a result, an increase of absorbance was observed depending on the concentration of the deacetylase inhibitors (FIGS. 13 and 14, and Tables 1 and 2). In this measurement, a stronger inhibition of deacetylation of histone in cells accompanies a larger degree of acetylation of histone, and absorbance was increased depending on the increase in the concentration of antigen (an acetylated histone). Therefore, an inhibition of the deacetylase activity correlates to an increase of absorbance.
# CMV promoter = CMV promoter activity in pcDNA3-GFP-harboring CHO cells detected using the GFP reporter gene; assay type: cell-based; conditions: 8 hours
# Description: A plasmid vector (pcDNA3-GFP), in which GFP gene was introduced into a multicloning site immediately downstream of CMV promoter in pcDNA3 expression vector for mammalian cells in the forward direction was prepared by the standard method using E. coli. • 2. Introduction of the Plasmid Vector into Cells and Screening of Plasmid-Harboring Cells
# pcDNA3-GFP was introduced into CHO cells by the lipofection method, and cultured for 24 hours at 37° C. in a 5% CO2 incubator (4 ml of DMEM was used as a culture medium per 6 cm-plate). Neomycin, an antibiotic, the resistance gene of which is carried on pcDNA3 plasmid, was added to the medium, and cultured for 2 weeks to select cells harboring pcDNA3-GFP. During this screening, the medium was replaced with a new one containing neomycin every four days. • 3. Screening of the Plasmid-Harboring Cells in which the Promoter Activity is Inhibited
# The clones of the screened cells were transferred to separate plates and cultured. […] Several clones in which emission of the product of the GFP gene ligated downstream of CMV promoter was weak or was hardly detected were selected.
# These cells were spread onto a 96-well plate for cell culture, adjusted to about 2500 cells per well (200 μl of DMEM was used as the culture medium per well), and cultured overnight (about 10 to 20 hours) at 37° C. in a 5% CO2 incubator to tightly attach the cells onto the plate. […]
# The amount of GFP proteins expressing in cells in each well of the treated 96-well plate was measured with a fluorescent multiplate reader as change of fluorescence intensity.
# As a result, an increase of florescence intensity was observed depending on the concentration of the deacetylase inhibitors (FIGS. 15, 16 and Tables 3 and 4).
# [1] = test system: sub p53-1 and sub p53-2 peptides; experiment: ELISA system for measuring the acetyltransferase activity (liquid and solid phase); assay type: biochemical, human; conditions: 0 to 10 μg/ml; liquid and solid phases; depending on the concentration; FIGS. 9 and 10
# Description: Two peptide substrates “Sub p53-1” (SEQ ID NO: 13/Bio-STSRHKKLMFKTE) and “Sub p53-2” (SEQ ID NO: 14/Bio-SHLKSKKGQSTSR) comprising the 373rd and 382nd lysine residues of the amino acid sequence of human p53, respectively, reported as an acetylation sites of acetyltransferase, were prepared by a peptide synthesizer. Amino acids in the peptide are shown in one-letter codes, and “Bio” at the amino ends means biotin. Ninety percent or higher purity was confirmed by HPLC. “Sub p53-1” and “Sub-p53-2” were composed of amino acids 376 to 388 and amino acids 367 to 379, respectively. […] The amplified PCR product was subcloned to pGEX, expressed as a fusion with GST, and purified (GST-p53 Cter). • (2) Preparation of a Peptide Substrate, “GST-p53 Cter” and a Streptoavidin Sensitized Plate […]
# The synthesized peptide substrates and a recombinant acetyltransferase were reacted in the liquid phase, and the enzyme activity was measured by the ELISA system using a microtiter plate. […] 100 μl of 1.5 N phosphate solution were added to terminate the coloring reaction, and absorbance at 450 nm was measured using a microtiter plate reader. • Solid Phase Analysis System (Refer to FIG. 2) […]
# Sub p53-1 = target: T1, Sub p53-1
# Sub p53-2 = target: T2, Sub p53-2
molecule,measurement,setting,value
"CCCC(=O)O [S. B., butyric acid]",Absorbance at 450 nm,histone deacetylase; S. B. concentration 0.012 mM,0.091
same,Absorbance at 450 nm,histone deacetylase; S. B. concentration 0.049 mM,0.077
same,Absorbance at 450 nm,histone deacetylase; S. B. concentration 0.195 mM,0.097
same,Absorbance at 450 nm,histone deacetylase; S. B. concentration 0.78 mM,0.136
same,Absorbance at 450 nm,histone deacetylase; S. B. concentration 3.13 mM,0.306
same,Absorbance at 450 nm,histone deacetylase; S. B. concentration 12.5 mM,0.551
same,Absorbance at 450 nm,histone deacetylase; S. B. concentration 50 mM,0.545
same,Relative fluorescence intensity (%),CMV promoter; S. B. concentration 0.012 mM,8.5%
same,Relative fluorescence intensity (%),CMV promoter; S. B. concentration 0.049 mM,7.8%
same,Relative fluorescence intensity (%),CMV promoter; S. B. concentration 0.195 mM,13.3%
same,Relative fluorescence intensity (%),CMV promoter; S. B. concentration 0.78 mM,15.7%
same,Relative fluorescence intensity (%),CMV promoter; S. B. concentration 3.13 mM,50.3%
same,Relative fluorescence intensity (%),CMV promoter; S. B. concentration 12.5 mM,98.5%
same,Relative fluorescence intensity (%),CMV promoter; S. B. concentration 50 mM,100%
"CC(/C=C/C(=O)NO)=C\[C@@H](C)C(=O)c1ccc(N(C)C)cc1 [TSA, trichostatin A]",Absorbance at 450 nm,histone deacetylase; TSA concentration 0.5 nM,0.056
same,Absorbance at 450 nm,histone deacetylase; TSA concentration 1.95 nM,0.056
same,Absorbance at 450 nm,histone deacetylase; TSA concentration 7.8 nM,0.041
same,Absorbance at 450 nm,histone deacetylase; TSA concentration 31.3 nM,0.071
same,Absorbance at 450 nm,histone deacetylase; TSA concentration 125 nM,0.095
same,Absorbance at 450 nm,histone deacetylase; TSA concentration 500 nM,0.278
same,Absorbance at 450 nm,histone deacetylase; TSA concentration 2000 nM,0.476
same,Relative fluorescence intensity (%),CMV promoter; TSA concentration 0.5 nM,2.2%
same,Relative fluorescence intensity (%),CMV promoter; TSA concentration 1.95 nM,1.8%
same,Relative fluorescence intensity (%),CMV promoter; TSA concentration 7.8 nM,5.1%
same,Relative fluorescence intensity (%),CMV promoter; TSA concentration 31.3 nM,12.3%
same,Relative fluorescence intensity (%),CMV promoter; TSA concentration 125 nM,34.2%
same,Relative fluorescence intensity (%),CMV promoter; TSA concentration 500 nM,73.1%
same,Relative fluorescence intensity (%),CMV promoter; TSA concentration 2000 nM,100%
B1,acetyltransferase activities to sub p53-1 and sub p53-2 peptides,[1],detected
same,"acetyltransferase activity (ELISA with anti-acetylated peptide antibody, absorbance at 450 nm; liquid and solid phase)",Sub p53-1,"the acetyltransferase activities to ""subp53-1"" and ""sub p53-2"" peptides depending on the concentration of CBP were detected"
same,"acetyltransferase activity (ELISA with anti-acetylated peptide antibody, absorbance at 450 nm; liquid and solid phase)",Sub p53-2,"the acetyltransferase activities to ""subp53-1"" and ""sub p53-2"" peptides depending on the concentration of CBP were detected"
